Source: ChEMBL document CHEMBL1127269, “Synthesis and DNA binding properties of a series of N to C linked and imidazole containing analogues of distamycin” (Bioorg Med Chem Lett, 1994)

How the values were obtained:
Type in all cases: nucleic-acid assay
Nucleic Acid [1] = test: Tested for binding association constant against Poly (dA.dT) using ethidium bromide assay
Nucleic Acid [2] = test: Tested for binding association constant against calf thymus using ethidium bromide assay; settings: Bos taurus
Nucleic Acid [3] = test: Tested for binding association constant against Poly (dG-dC) using ethidium bromide assay
Nucleic Acid [4] = test: Tested for binding association constant against T4 coliphage DNA using ethidium bromide assay
Nucleic Acid [5] = test: Tested for binding association constant against calf thymus DNA using ethidium bromide assay; settings: Bos taurus

Row | Compound | K app (Nucleic Acid [1]) | K app (Nucleic Acid [2]) | K app (Nucleic Acid [3]) | K app (Nucleic Acid [4]) | K app (Nucleic Acid [5])
1 | CN(C)CCNC(=O)c1nc(NC(=O)c2nc(NC(=O)CCNC(=O)c3nc(NC=O)cn3C)cn2C)cn1C | 250000 M⁻¹ | 1.6e+06 M⁻¹ | 5.2e+06 M⁻¹ | 1.9e+06 M⁻¹ | 
2 | CN(C)CCNC(=O)c1nc(NC(=O)CCCNC(=O)c2nc(NC=O)cn2C)cn1C | 10000 M⁻¹ | 10000 M⁻¹ | 21000 M⁻¹ | 33000 M⁻¹ | 
3 | Cn1cc(NC(=O)c2cc(NC(=O)c3cc(NC=O)cn3C)cn2C)cc1C(=O)NCCC(=N)N | 3.48e+07 M⁻¹ |  | 200000 M⁻¹ | 650000 M⁻¹ | 770000 M⁻¹
4 | CN(C)CCNC(=O)c1nc(NC(=O)CCNC(=O)c2nc(NC=O)cn2C)cn1C | 12000 M⁻¹ | 150000 M⁻¹ | 580000 M⁻¹ | 140000 M⁻¹ | 
5 | CN(C)CCNC(=O)c1nc(NC(=O)c2nc(NC(=O)CCCNC(=O)c3nc(NC=O)cn3C)cn2C)cn1C | 50000 M⁻¹ | 48000 M⁻¹ | 92000 M⁻¹ | 140000 M⁻¹ | 
